Values after ≈ are worked out from the molar mass of the structure shown. “Also recorded” adds a separate entry of the source. Structures can show the parent of a compound that is named as a salt.
Key:
[1] = test system: human plasma enriched with thrombocytes; test: Anti-aggregation activity in vitro (Born), ADP-induced aggregation; format: cell-based; details: for relative efficiency H^1 (anti-aggregation): relative to PGI2-Na = 1
Method: (§1) The selective biological activity of these compounds may be studied by investigating the antiaggregation and hypotensive activity simultaneously. Anti-aggregation activity was measured in vitro according to Born Nature, 214, 927 (1962) on human plasma enriched with thrombocytes in an aggregation induced by […] ADP, whereas the haemodynamic activity was obtained from the blood pressure reducing activity of the compound administered in an i.v. bolus injection to an anaesthetized cat with an open-chest.

[2] = test system: anaesthetized cat with an open-chest; test: Hypotensive (haemodynamic, blood pressure reducing) activity, i.v. bolus, anaesthetized open-chest cat; format: in vivo; details: for ED50: Felis catus, iv; for relative efficiency H^2 (hypotensive): relative to PGI2-Na = 1
Method: as §1

[3] = test system: antiaggregation and hypotensive activity; test: Selectivity: antiaggregation versus hypotensive activity; details: for H^1 /H^2: relative anti-aggregation efficiency / relative hypotensive efficiency
Method: as §1

[4] = background; cited from earlier work
[5] = in vitro, human plasma enriched with thrombocytes, 2 μm ADP
[6] = i.v. bolus, anaesthetized open-chest cat

## CCCCC[C@H](O)/C=C/[C@@H]1[C@H]2C(=O)/C(=C/CCCC(=O)O)O[C@H]2C[C@H]1O [7-oxo-PGI2 --Na, sodium salt of 7-oxo-PGI2]
[1]; [5]
  IC50: 15 ng/mL
[1]
  relative efficiency H^1 (anti-aggregation): 0.086
[2]; [6]
  ED50: 6.5 µg/kg
[2]
  relative efficiency H^2 (hypotensive): 0.024
[3]
  H^1 /H^2: 2.75

## CCCCC[C@H](O)/C=C/[C@@H]1[C@H]2C/C(=C/CCCC(=O)O)O[C@H]2C[C@H]1O [PGI2 --Na]
[1]; [5]
  IC50: 1 ng/mL (≈ 2.84 nM)
[2]; [6]
  ED50: 0.16 µg/kg
[2]
  relative efficiency H^2 (hypotensive): 1
[3]
  H^1 /H^2: 1

## CCCCC[C@H](O)/C=C/[C@@H]1[C@H]2C/C(=C/CCCC(=O)O)O[C@H]2C[C@H]1O [PGI2, Prostacyclin]
[4]
  chemical and biological stability (in words): chemical and biological instability

## O=C([O-])CCCC=C1OC2CC(O)C(C=CC(O)C3CCCC3)C2C1=O.[Na+] (stereo not shown) [Sodium salt of 7-oxo-16,17,18,19,20-pentanor-15-cyclopentyl-PGI2]
[1]; [5]
  anti-aggregation IC50: 1.6 ng/mL
[1]
  relative efficiency H^1 (anti-aggregation): 0.625
[2]; [6]
  hypotensive activity ED50: 21.2 µg/kg
[2]
  relative efficiency H^2 (hypotensive): 0.0075
[3]; from H^1/H^2, listed as cyclopentyl analog
  selectivity compared with prostacycline and 7-oxo-PGI2 sodium salt (in words): about hundred times more selective than prostacycline; also recorded: considerably more selective than the sodium salt of 7-oxo-PGI2
[3]
  H^1 /H^2: 83.1

From patent US4588713A, “Selective biologically active 7-oxo-prostacyclin derivatives and pharmaceutical compositions containing same” (Chinoin Gyogyszer Vegyeszeti Termekek Gyara Rt., priority 1984, dated 1986)
